Test results reported in patent US10251927B2, “Process to enhance the bioactivity of Ashwagandha extracts” (priority 2015, dated 2019).
Where “and” joins values, the source holds several entries; their conditions need not be identical. Equal values may be shown once. Read-outs that look alike come from different tables or passages of the source.

Experiments:
[1] = test system: streptozotocin induced diabetic rats; test: Antidiabetic activity of coated extracts in different doses in streptozotocin induced diabetic rats (Example 33); assay type: in vivo, rat; conditions: STZ diabetic rats
Description: Different Ashwagandha extracts with coating in different dosages was evaluated for antidiabetic activity in experimental rats. Male/Female albino wistar rats were maintained as per standard guidelines: housed in polypropylene cages, under 12 hour artificial light and dark cycles at a temperature of 24±2° C., given a standard pellet diet and water ad libitum. The animals were acclimatized to the animal house conditions for a week before beginning the experiment. Diabetes was induced by injecting streptozotocin 35 mg/kg dissolved in 0.1 M citrate buffer of pH 4.5, intra-peritoneally. Five days after induction of diabetes (day 1 of the study), animals were fasted for 12 hours and the fasting blood glucose level (FBG) was estimated for diagnosing diabetic rats. Animals with FBG above 200 mg/dl were considered diabetic. The diabetic animals were randomly divided into 13 groups of 4 animals each.
Fasting blood glucose level and body weight of rats was measured initially and then at Day 7, Day 14, Day 21 and Day 28 of the study.

[2] = test system: streptozotocin induced diabetic rats; test: Antidiabetic activity in streptozotocin induced diabetic rats (Example 32); assay type: in vivo, rat; conditions: STZ diabetic rats
Description: Male/Female albino wistar rats were maintained as per standard guidelines: housed in polypropylene cages, under 12 hour artificial light and dark cycles at a temperature of 24±2° C., given a standard pellet diet and water ad libitum. The animals were acclimatized to the animal house conditions for a week before beginning the experiment. Diabetes was induced by injecting streptozotocin 35mg/kg dissolved in 0.1 M citrate buffer of pH 4.5, intra-peritoneally. […] Animals with FBG above 200 mg/dl were considered diabetic. The diabetic animals were randomly divided into 13 groups of six animals each. One normal group was also included comprising of six normal rats.

rats [3] = test: Forced swim test after reserpine, different percentage of enteric coating (Example 31); assay type: in vivo, rat; conditions: Reserpine 6 mg/kg i.p.; 10 mg/kg p.o.; test after 2 hour; vehicle 250, normal control 120
Description: Efficacy Study of Different Ashwagandha Extracts Granules with Different Percentage of Enteric Coating. 44 rats were divided into 11 groups comprising of 4 rats in each group. The animals were trained for swimming test (15 minutes) as pre-test session and then fasted overnight. To the fasted animals, reserpine (6 mg/kg) was injected i.p. to depress the animals. Immediately after the reserpine injection, the test samples (ashwagandha root powder) with different percentage of enteric coating/standard were fed orally as designated dose. After 2 hour of test sample/standard, the rats were tested using forced swim test and duration of immobility in the 5 minutes test session was recorded. In this test more immobility time indicate that animal is more depressed or stressed.
The test was repeated with different percentage of coated ashwagandha extract containing 3.5% withanolide glycosides and different percentage of coated ashwagandha extract containing 35% and 80% withanolide glycosides.

rats [4] = test: Forced swim test after reserpine injection, different Ashwagandha extracts (Example 13); assay type: in vivo, rat; conditions: Reserpine 6 mg/kg i.p.; 10 mg/kg p.o.; vehicle 210, normal control 120
Description: 44 rats were divided into eleven groups having 4 rats in each group. The animals were trained for swimming test (15 minutes) as pre-test session and then fasted overnight. To the fasted animals, reserpine (6 mg/kg) was injected i.p. to depress the animals. After 1 hour of reserpine injection, the test samples/standard was fed orally as designated dose.

rats [5] = test: Forced swim test after reserpine, normal (film), enteric and delayed release coating (Example 30); assay type: in vivo, rat; conditions: Reserpine 6 mg/kg i.p.; 10 mg/kg p.o.; test after 2 hour; vehicle 250, normal control 120
Description: 60 rats were divided into 15 groups comprising of 4 rats in each group. The animals were trained for swimming test (15 minutes) as pre-test session and then fasted overnight. To the fasted animals, reserpine (6 mg/kg) was injected i.p. to depress the animals. Immediately after reserpine injection, the test samples with normal (Hydroxy Propyl Cellulose; HPC), enteric (Eudragit) and delayed release (High percentage of Eudragit) coating/standard were fed orally as designated doses. After 2 hour of test sample/standard, the rats were tested using forced swim test and duration of immobility in the 5 minutes test session was recorded. In this test more immobility time indicate that animal is more depressed or stressed.

rats [6] = test: Forced swim test after reserpine, powder/extracts treated at different pH (Example 29); assay type: in vivo, rat; conditions: Reserpine 6 mg/kg i.p.; 10 mg/kg p.o.; vehicle 250, normal control 120
Description: Ashwagandha powder/extract was added to different buffer(pH 1,2,3,5,7 and 7.4) in 1:20 ratio of Ashwagandh powder/extract: buffer. The extract -buffer solution was kept in a waterbath at 37° C. for 2 hrs. The solution was neutralised by adding base or acid solution. The neutralised solution was concentrated and dried.
The animals were trained for swimming test (15 minutes) as pre-test session and then fasted overnight. To the fasted animals, reserpine (6 mg/kg) was injected i.p. to depress the animals. After 1 hour of reserpine injection, the test samples treated at different pH/standard were fed orally as designated dose. After 1 hour of test sample/standard, the rats were tested using forced swim test and duration of immobility in the 5 minutes test session was recorded. In this test more immobility time indicate that animal is more depressed or stressed.

rats [7] = test: Forced swim test after reserpine injection, enteric and nonenteric coated extracts (Example 14); assay type: in vivo, rat; conditions: Reserpine 6 mg/kg i.p.; 10 mg/kg p.o.; vehicle 250, normal control 120
Description: 92 rats were divided into twenty three groups. Each group had 4 rats. The animals were trained for swimming test (15 minutes) as pre-test session and then fasted overnight. To the fasted animals, reserpine (6 mg/kg) was injected i.p. to depress the animals. After 1 hour of reserpine injection, the test samples/standard was fed orally as designated dose. After 1 hour of test sample/standard, the rats were tested using forced swim test and duration of immobility in the 5 minutes test session was recorded.

wistar rats = test: Carrageenan induced paw edema model (Example 16); assay type: in vivo; conditions: Rattus norvegicus, po, 10 mg/kg p.o. single dose, read-out: Percentage inhibition (%) of inflammation
Description: Fourty five wistar rats were divided into nine groups (n=5). Following treatment was given to the rats as single dose: […] The percentage inhibition of edema was calculated for each group with respect to the vehicle received control group of animals.

Albino Wistar rats = test: Anoxia stress tolerance test (Example 16); assay type: in vivo, rat; conditions: 2 mg/kg p.o.
Description: Albino Wistar rats of either sex weighing 150-220 g were selected and divided into 11 groups of six each and following treatment was given after one week of acclimatization:
Animals were treated as shown above for the 3 weeks. At the end of 1st, 2nd and 3rd week i.e. on 7th, 14th and 21st day 1 h after the treatment stress was induced by placing each animal individually in the hermetic vessel of 1 L capacity to record anoxia tolerance time. The time duration of entry of the animal into the hermetic vessel and the appearance of the first convulsion was taken as time of anoxia.

[8] = before treatment, group 0.5 mg/kg

`COc1ccc(Cl)cc1C(=O)NCCc1ccc(S(=O)(=O)NC(=O)NC2CCCCC2)cc1` [Glibenclamide] was tested, and the “Fasting blood glucose (FBG) level after 28 days” value ([1]; 0.5 mg/kg for 28 days) was 125 mg/dL, the “Fasting Blood Glucose level” value ([1]; Day 1 (Initial), standard drug) was 423 mg/dL and the “Fasting Blood Glucose level” value ([1]; Day 7, standard drug) was 381 mg/dL. The “Fasting Blood Glucose level” value ([1]; Day 14, standard drug) was 246 mg/dL, the “Fasting Blood Glucose level” value ([1]; Day 21, standard drug) was 197 mg/dL and the “Fasting Blood Glucose level” value ([1]; Day 28, standard drug) was 125 mg/dL. The “Fasting blood glucose (FBG) level, initial” value [1, 8] was 423 mg/dL, the “Fasting blood glucose (FBG) level after 28 days” value ([2]; 0.5 mg/kg for 28 days) was 124 mg/dL and the “Fasting Blood Glucose level” value ([2]; Day 1 (Initial), standard drug) was 422 mg/dL. For the same molecule, the “Fasting Blood Glucose level” value ([2]; Day 7, standard drug) was 380 mg/dL, the “Fasting Blood Glucose level” value ([2]; Day 14, standard drug) was 245 mg/dL and the “Fasting Blood Glucose level” value ([2]; Day 21, standard drug) was 196 mg/dL. For the same molecule, the “Fasting Blood Glucose level” value ([2]; Day 28, standard drug) was 124 mg/dL and the “Fasting blood glucose (FBG) level, initial” value [2, 8] was 422 mg/dL.

For `CNCCC(Oc1ccc(C(F)(F)F)cc1)c1ccccc1` (centres unmarked) [Fluoxetine], the “Immobility time” value (rats [3]) was 120 s, the “Immobility time” value (rats [4]) was 122 s and the “Immobility time” value (rats [5]) was 120 s. The “Immobility time” value (rats [6]) was 122 s and 120 s and the “Immobility time” value (rats [7]) was 122 s.

Work on `COc1ccc2c(c1)c(CC(=O)O)c(C)n2C(=O)c1ccc(Cl)cc1` [Indomethacin] yielded an inhibition at 10 mg/kg (wistar rats; 0.5 hr) of 28%, an inhibition at 10 mg/kg (wistar rats; 1 hr) of 65% and an inhibition at 10 mg/kg (wistar rats; 2 hr) of 80%. For the same molecule, the inhibition at 10 mg/kg (wistar rats; 3 hr) was 86%.

With `CN1C(=O)CN=C(c2ccccc2)c2cc(Cl)ccc21` [Diazepam] the “Duration of anoxia stress tolerance” value (Albino Wistar rats; First week) was 34.50 min, the “Duration of anoxia stress tolerance” value (Albino Wistar rats; Second week) was 37.33 min and the “Duration of anoxia stress tolerance” value (Albino Wistar rats; Third week) was 37.00 min.
